Experiments:
[1] = tested on: Zea mays L. var. saccharata Sturt; assay: Cultivation of Zea mays L. var. saccharata Sturt with GSSG, sensory test (Example 4); format: in vivo; conditions: 200 mL of 0.5 mM at root twice a week for 12 weeks
Excerpt: In the present example, Zea mays L. var. saccharata Sturt was cultivated under a condition different from Example 3 in how to apply GSSG. First, a Zea mays L. var. saccharata Sturt seed (TAKII & CO. Ltd., product number: Canberra 90) was sown in vermiculite (ASAHI INDUSTRIES Co., LTD.). One week after sowing, a Zea mays L. var. saccharata Sturt plant was transplanted to a hydroponic culture pot described in Example 1. To the plant, 3 g of Kumiai phosphorate ammonium nitrate potassium S-604 (Chisso Asahi Fertilizer Co., Ltd.) was applied as an additional fertilizer 4 weeks and 6 weeks after the sowing.
During 12 weeks after germination, 200 mL of 0.5 mM GSSG was applied at a root of the plant twice a week. For comparison, a Zea mays L. var. saccharata Sturt plant was cultivated by the same method as in the present example, except that GSSG was not applied, and fruit thereof was harvested.
Fruit was harvested 12 weeks after the sowing and subjected to a sensory test of sugar content. As a result, it was determined that fruit of the plant applied with GSSG increased in sugar content compared to that of the plant applied with no GSSG. Further, it was determined that the plant applied with GSSG increased in size and number of fruit.

Prunus avium (Napoleon) = assay: Prunus avium leaf coating with GSSG, sensory test of fruit (Example 8); format: in vivo; conditions: leaf surface coated with 0.5 mM 4 weeks and 3 weeks before harvest
Description: In the present example, Prunus avium was cultivated. Specifically, 4 weeks and 3 weeks before an expected date of harvesting Prunus avium (Napoleon) fruit, a surface of a leaf on a branch having the fruit to be harvested was coated with 0.5 mM GSSG. The fruit was harvested on the expected date.
Next, the fruit harvested was subjected to a sensory test of sugar content. As a result, it was determined that the fruit applied with GSSG increased in sugar content and decreased in acidity. Further, it was determined that the fruit applied with GSSG increased in weight. Furthermore, the fruit obtained was subjected to sugar content determination using “Pocket” Refractometer APAL-1 (ATAGO CO., LTD.). For comparison, fruit applied with no GSSG was also subjected to the sugar content determination. […] In FIG. 5, the vertical scale indicates sugar content (Brix, unit: %).

Substance: oxidized glutathione [GSSG]
- number of fruit [1]: increased
- size of fruit [1]: increased
- sugar content of fruit (sensory test) ([1]; vs no GSSG): increased
- acidity of fruit (sensory test) (Prunus avium (Napoleon)): decreased
- sugar content of fruit (sensory test) (Prunus avium (Napoleon)): increased
- weight of fruit (Prunus avium (Napoleon)): increased

Reference: US8524978B2, “Composition for production of plant body having improved sugar content, and use thereof” (Japan Science and Technology Agency, priority 2007, dated 2013)
